One experiment relates to MOLM14 (D835Y) cells. Description: Combination drug screening, 10 x 10 matrix, cell viability (Cell Titer Glo). It is filed as cell-based. The settings on record: combination with Compound 96, 10 x 10 dataset, 48 hours. As to the method: Briefly, 10 nL of compounds were acoustically dispensed into 1536-well white polystyrene tissue culture-treated plates with an Echo 550 acoustic liquid handler (Labcyte). MOLM14 (D835Y) cells were then added to compound-containing plates at a density of 500-cells/well in 5 μL of medium. A 10-point custom concentration range was used for all listed drugs. Plates were incubated for 48 hours at standard incubator conditions covered by a stainless steel gasketed lid to prevent evaporation. 48 h post compound addition, 3 μL of Cell Titer Glo (Promega) were added to each well and plates were incubated at room temperature for 15 minutes with the stainless-steel lid in place. Luminescence readings were taken using a Viewlux imager (PerkinElmer) with a 2 second exposure time per plate.
However, different methodologies may yield different numerical scores, and different definitions of what constitutes a deviation from mere additivity vs true drug synergy.
However, the utility in certain drug combinations vs others should not be distinguished based on cutoffs between HSA scores, because the score itself is only a relative indicator that is completely dependent on experimental design and is not an absolute number. Furthermore, the concept of what constitutes clinically meaningful drug synergy is something that is still being debated, not only between pharmacologists and physicians, but amongst pharmacologists themselves.

The target of another experiment is T1, IRAK1 (Homo sapiens, UniProt P51617).
T1 construct: purchased Reaction Biology (RBC HotSpot Kinase Assay)
T1 sequence (P51617 whole entry): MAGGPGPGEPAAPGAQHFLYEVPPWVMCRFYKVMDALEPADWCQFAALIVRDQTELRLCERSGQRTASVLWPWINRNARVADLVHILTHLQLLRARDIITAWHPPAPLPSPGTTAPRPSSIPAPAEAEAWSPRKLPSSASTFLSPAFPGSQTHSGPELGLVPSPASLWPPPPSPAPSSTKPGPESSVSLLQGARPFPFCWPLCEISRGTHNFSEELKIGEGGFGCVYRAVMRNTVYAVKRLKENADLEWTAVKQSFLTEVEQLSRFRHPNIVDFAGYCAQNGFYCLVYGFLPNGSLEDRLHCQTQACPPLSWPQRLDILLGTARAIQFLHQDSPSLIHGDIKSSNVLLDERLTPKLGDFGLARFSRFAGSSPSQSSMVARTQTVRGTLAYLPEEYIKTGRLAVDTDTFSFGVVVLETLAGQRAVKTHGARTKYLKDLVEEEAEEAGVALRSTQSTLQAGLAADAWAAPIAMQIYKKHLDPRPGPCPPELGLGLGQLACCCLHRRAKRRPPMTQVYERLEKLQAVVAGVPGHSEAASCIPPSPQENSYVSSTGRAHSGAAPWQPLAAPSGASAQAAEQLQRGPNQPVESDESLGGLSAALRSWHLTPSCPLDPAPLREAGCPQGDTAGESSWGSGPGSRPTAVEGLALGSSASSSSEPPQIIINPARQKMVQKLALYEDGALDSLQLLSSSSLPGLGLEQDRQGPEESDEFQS
The experiment can be described thus: RBC HotSpot Kinase Assay, IRAK1. Format: biochemical. In outline:
(§1)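 Radiometric filter-binding (HotSpot) activity assay on isolated recombinant kinase, possibly truncated or catalytic domain only, in 20 mM Hepes pH 7.5, 10 mM MgCl2, 1 mM EGTA, 2 mM DTT, 1% DMSO. Compound preincubated 20 min with kinase and substrate, then ^33P-ATP added. Reaction 2 h at room temperature, read by P81 filter binding.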

Another experiment deals with T2, FLT3 (Homo sapiens, UniProt P36888).
T2 construct: purchased Reaction Biology (RBC HotSpot Kinase Assay)
T2 sequence (P36888 564-958 limits assumed): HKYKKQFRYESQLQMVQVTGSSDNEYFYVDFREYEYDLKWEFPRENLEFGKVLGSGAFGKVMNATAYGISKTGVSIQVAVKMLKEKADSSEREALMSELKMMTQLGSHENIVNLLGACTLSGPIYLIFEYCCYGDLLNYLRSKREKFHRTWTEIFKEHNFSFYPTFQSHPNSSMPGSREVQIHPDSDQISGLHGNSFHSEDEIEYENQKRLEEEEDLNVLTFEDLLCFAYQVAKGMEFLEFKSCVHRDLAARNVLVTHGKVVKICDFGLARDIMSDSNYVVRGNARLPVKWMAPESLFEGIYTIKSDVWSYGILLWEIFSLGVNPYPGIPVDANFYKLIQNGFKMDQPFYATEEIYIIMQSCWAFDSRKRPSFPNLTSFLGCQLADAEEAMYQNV
Description: RBC HotSpot Kinase Assay, FLT3. Format: biochemical. The procedure, abridged: as §1

The target in another experiment is T3, IRAK4 (Homo sapiens, UniProt Q9NWZ3).
T3 sequence (Q9NWZ3 1-460): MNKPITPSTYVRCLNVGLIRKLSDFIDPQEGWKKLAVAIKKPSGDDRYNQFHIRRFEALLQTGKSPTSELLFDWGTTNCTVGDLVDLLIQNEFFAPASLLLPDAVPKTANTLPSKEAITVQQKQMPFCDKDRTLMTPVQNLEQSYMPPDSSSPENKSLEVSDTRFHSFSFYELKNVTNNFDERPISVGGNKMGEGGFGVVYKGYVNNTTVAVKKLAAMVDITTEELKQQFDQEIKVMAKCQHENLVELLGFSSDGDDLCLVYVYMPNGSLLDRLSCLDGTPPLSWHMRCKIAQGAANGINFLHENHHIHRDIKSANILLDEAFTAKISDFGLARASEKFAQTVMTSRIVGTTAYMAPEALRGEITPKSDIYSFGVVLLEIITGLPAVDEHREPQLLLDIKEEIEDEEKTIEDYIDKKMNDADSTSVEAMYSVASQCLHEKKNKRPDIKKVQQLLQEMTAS
The experiment can be described thus: RBC HotSpot Kinase Assay, IRAK4. It is filed as biochemical. The arrangement: purchased Reaction Biology (RBC HotSpot Kinase Assay). In outline:
as §1

The results in this text go back to patent publication US12534469B2 (CHILDREN'S HOSPITAL MEDICAL CENTER, priority 2020, dated 2026).

pIC50: −log10 of the molar value.

As for `Nc1ccn([C@@H]2O[C@H](CO)[C@@H](O)C2(F)F)c(=O)n1` [Gemcitabine, reference compound], the “Sum Excess HSA” value with MOLM14 (D835Y) cells is listed as 30.69.

`CCN(c1cc(-c2ccc(CN3CCOCC3)cc2)cc(C(=O)NCc2c(C)cc(C)[nH]c2=O)c1C)C1CCOCC1` [Tazemetostat, tazemetostat, reference compound]: the “Sum Excess HSA” value in the experiment with MOLM14 (D835Y) cells amounted to 74.36.

In the case of `CC1(C)CCC(CN2CCN(c3ccc(C(=O)NS(=O)(=O)c4ccc(NCC5CCOCC5)c([N+](=O)[O-])c4)c(Oc4cnc5[nH]ccc5c4)c3)CC2)=C(c2ccc(Cl)cc2)C1` [Venetoclax (ABT-199), venetoclax, reference compound], the “Sum Excess HSA” value in the experiment on MOLM14 (D835Y) cells was −549.6211.

In the case of `CC1(C)CCC(c2ccc(Cl)cc2)=C(CN2CCN(c3ccc(C(=O)NS(=O)(=O)c4ccc(N[C@H](CCN5CCOCC5)CSc5ccccc5)c(S(=O)(=O)C(F)(F)F)c4)cc3)CC2)C1` [Navitoclax (ABT-263), Navitoclax, reference compound], the “Sum Excess HSA” value in the experiment on MOLM14 (D835Y) cells is reported as −227.3.

As for `COc1cc(C(=O)O)ccc1NC(=O)[C@@H]1N[C@@H](CC(C)(C)C)[C@](C#N)(c2ccc(Cl)cc2F)[C@H]1c1cccc(Cl)c1F` [Idasanutlin], the “Sum Excess HSA” value in the experiment with MOLM14 (D835Y) cells was found to be 192.3.

With `FC1(F)CNCC1Nc1cccc(-c2cnc3ccc(-c4cnn(C5CC5)c4)nn23)n1` (centres unmarked) [Compound 22, 6-(6-(1-cyclopropyl-1H-pyrazol-4-yl)imidazo[1,2-b]pyridazin-3-yl)-N-(4,4-difluoropyrrolidin-3-yl)pyridin-2-amine], the results for the pIC50 against IRAK1, against FLT3 and at IRAK4 were 6.17, 8.22 and 7.36, respectively.

On to `c1ccc(-n2cc(-c3ccc4ncc(-c5cccc(NC6CC7(CNC7)C6)n5)n4n3)cn2)cc1` [Compound 33, N-(6-(6-(1-phenyl-1H-pyrazol-4-yl)imidazo[1,2-b]pyridazin-3-yl)pyridin-2-yl)-2-azaspiro[3.3]heptan-6-amine], for which the pIC50 – broadly, the negative decadic logarithm of the IC50, by convention in mol/L – was below 5.00 on IRAK1, 7.80 against FLT3 and 5.47 at IRAK4.

For `c1cc(NC2CCNC2)nc(-c2cnc3ccc(-c4cnn(C5CCOCC5)c4)nn23)c1` (centres unmarked) [Compound 29, N-(pyrrolidin-3-yl)-6-(6-(1-(tetrahydro-2H-pyran-4-yl)-1H-pyrazol-4-yl)imidazo[1,2-b]pyridazin-3-yl)pyridin-2-amine], the values for the pIC50 at IRAK1, against FLT3 and against IRAK4 were 4.89, 8.40 and 5.61, respectively.

In the case of `c1cc(NC2CC3(CCNC3)C2)nc(-c2cnc3ccc(-c4cn[nH]c4)nn23)c1` (centres unmarked) [Compound 38, N-(6-(6-(1H-pyrazol-4-yl)imidazo[1,2-b]pyridazin-3-yl)pyridin-2-yl)-6-azaspiro[3.4]octan-2-amine], the pIC50 at IRAK1 is 7.64; at FLT3 it was above 9.30; at IRAK4 it was 8.70.

As for `c1cc(NC2CC3(CCNC3)C2)nc(-c2cnc3ccc(-c4cnn5ccccc45)nn23)c1` (centres unmarked) [Compound 62, N-(6-(6-(pyrazolo[1,5-a]pyridin-3-yl)imidazo[1,2-b]pyridazin-3-yl)pyridin-2-yl)-6-azaspiro[3.4]octan-2-amine], the values for the pIC50 on IRAK1, against FLT3 and against IRAK4 were 6.39, above 9.30 and 7.80, respectively.

In the case of `c1cc(NC2CCC3(CNC3)C2)nc(-c2cnc3ccc(-c4cn[nH]c4)nn23)c1` (centres unmarked) [Compound 45, N-(6-(6-(1H-pyrazol-4-yl)imidazo[1,2-b]pyridazin-3-yl)pyridin-2-yl)-2-azaspiro[3.4]octan-6-amine], the negative-log IC50 (pIC50) against IRAK1 is 7.43; on FLT3, above 9.30; against IRAK4 it was 8.10.

Take `c1cc(NC2CC3(CNC3)C2)nc(-c2cnc3ccc(-c4cnn(C5CNC5)c4)nn23)c1` [Compound 37, N-(6-(6-(1-(azetidin-3-yl)-1H-pyrazol-4-yl)imidazo[1,2-b]pyridazin-3-yl)pyridin-2-yl)-2-azaspiro[3.3]heptan-6-amine]: the pIC50 against IRAK1 was below 5.00; at FLT3 it was 8.15; at IRAK4, 5.36.

For the molecule `COc1cc2ncc(-c3cccc(N[C@H]4CNC[C@@H]4C)n3)n2nc1C1CC1` [Compound 98, 6-(6-cyclopropyl-7-methoxyimidazo[1,2-b]pyridazin-3-yl)-N-((3R,4S)-4-methylpyrrolidin-3-yl)pyridin-2-amine], the pIC50 was 6.43 against IRAK1, above 9.30 against FLT3 and 8.70 against IRAK4.

Regarding `CO[C@H]1CNC[C@@H]1Nc1cccc(-c2cnc3ccc(C4CC4)nn23)n1` [Compound 74, 6-(6-cyclopropylimidazo[1,2-b]pyridazin-3-yl)-N-((3S,4S)-4-methoxypyrrolidin-3-yl)pyridin-2-amine], the pIC50 was 5.23 against IRAK1, 8.40 against FLT3 and 6.83 on IRAK4.

For the molecule `CC1(C)Cc2c(-c3ccc4ncc(-c5cccc(NC6CNCC6(F)F)n5)n4n3)cnn2C1` (centres unmarked) [Compound 60, N-(4,4-difluoropyrrolidin-3-yl)-6-(6-(5,5-dimethyl-5,6-dihydro-4H-pyrrolo[1,2-b]pyrazol-3-yl)imidazo[1,2-b]pyridazin-3-yl)pyridin-2-amine], the results for the pIC50 against IRAK1, at FLT3 and against IRAK4 were 6.56, 8.70 and 8.40, respectively.

For `CC(C)(C)c1ccc2ncc(-c3cccc(N[C@H]4CNC[C@@H]4F)n3)n2n1` [Compound 80, 6-(6-(tert-butyl)imidazo[1,2-b]pyridazin-3-yl)-N-((3S,4S)-4-fluoropyrrolidin-3-yl)pyridin-2-amine], the pIC50 at IRAK1 is 5.47; on FLT3, 7.96; at IRAK4 it was 6.64.

Turning to `c1cc(NC2CC3(CCNC3)C2)nc(-c2cnc3ccc(-c4cnn(C5CCOCC5)c4)nn23)c1` (centres unmarked) [Compound 41, N-(6-(6-(1-(tetrahydro-2H-pyran-4-yl)-1H-pyrazol-4-yl)imidazo[1,2-b]pyridazin-3-yl)pyridin-2-yl)-6-azaspiro[3.4]octan-2-amine], the pIC50 on IRAK1 is below 5.00; on FLT3, 7.74; at IRAK4 it was 5.46.

As to `c1cc(NC2CCC3(CNC3)C2)nc(-c2cnc3ccc(-c4cnn(C5CCOCC5)c4)nn23)c1` (centres unmarked) [Compound 48, N-(6-(6-(1-(tetrahydro-2H-pyran-4-yl)-1H-pyrazol-4-yl)imidazo[1,2-b]pyridazin-3-yl)pyridin-2-yl)-2-azaspiro[3.4]octan-6-amine], the values for the pIC50 on IRAK1, on FLT3 and against IRAK4 were below 5.00, 7.92 and 5.39, respectively.

Turning to `CC(C)(O)Cn1cc(-c2ccc3ncc(-c4cccc(N[C@H]5CCNC[C@@H]5F)n4)n3n2)cn1` [Compound 8, 1-(4-(3-(6-(((3S,4S)-3-fluoropiperidin-4-yl)amino)pyridin-2-yl)imidazo[1,2-b]pyridazin-6-yl)-1 H-pyrazol-1-yl)-2-methylpropan-2-ol], the figures for the pIC50 on IRAK1, at FLT3 and at IRAK4 were 6.15, 8.10 and 6.23, respectively.

For `CC(C)Oc1cnn2c(-c3cccc(N[C@H]4CNC[C@@H]4F)n3)cnc2c1` [Compound 115, N-((3S,4S)-4-fluoropyrrolidin-3-yl)-6-(7-isopropoxyimidazo[1,2-b]pyridazin-3-yl)pyridin-2-amine], the pIC50 is 5.50 against IRAK1, 8.05 on FLT3 and 6.49 against IRAK4.

As to `CC(C)(O)Cn1cc(-c2ccc3ncc(-c4cccc(N[C@H]5CNC[C@@H]5F)n4)n3n2)cn1` [Compound 4, 1-(4-(3-(6-(((3S,4S)-4-fluoropyrrolidin-3-yl)amino)pyridin-2-yl)imidazo[1,2-b]pyridazin-6-yl)-1 H-pyrazol-1-yl)-2-methylpropan-2-ol], the pIC50 against IRAK1 is 5.87; at FLT3, 8.52; against IRAK4, 6.94.
